Laboratory results as given in patent US20220339209A1, “ISOLATION, IDENTIFICATION AND APPLICATION OF STREPTOCOCCUS SP. 121” (priority 2021, published 2022).

How the values were obtained:
Shigella dysenteriae = assay: Filtering paper agar diffusion bacteriostatic test against Shigella dysenteriae; type: cell-based; settings: 50 μL on 0.6 cm filter paper, extract 1 mg/10 μL, positive control 1 mg/mL, MH plate, 37° C., 16-20 h
Klebsiella pneumoniae = assay: Filtering paper agar diffusion bacteriostatic test against Klebsiella pneumoniae; settings: 50 μL on 0.6 cm filter paper, extract 1 mg/10 μL, positive control 1 mg/mL, MH plate, 37° C., 16-20 h

Structure (SMILES): NC[C@H]1O[C@H](O[C@H]2[C@H](O)[C@@H](O[C@H]3O[C@H](CO)[C@@H](O)[C@H](N)[C@H]3O)[C@H](N)C[C@@H]2N)[C@H](O)[C@@H](O)[C@@H]1O [Kanamycin, kanamycin]
- size of bacteriostatic ring, mean (Shigella dysenteriae; mean of 3 measurements): 23.7 mm
- size of bacteriostatic ring (Shigella dysenteriae; the first time): 24 mm
- size of bacteriostatic ring (Shigella dysenteriae; the second time): 24 mm
- size of bacteriostatic ring (Shigella dysenteriae; the third time): 23 mm
- size of bacteriostatic ring, mean (Klebsiella pneumoniae; mean of 3 measurements): 19.7 mm
- size of bacteriostatic ring (Klebsiella pneumoniae; the first time): 20 mm
- size of bacteriostatic ring (Klebsiella pneumoniae; the second time): 18 mm
- size of bacteriostatic ring (Klebsiella pneumoniae; the third time): 21 mm
